Laboratory results published in patent publication US20240182445A1 (ONO PHARMACEUTICAL CO., LTD., priority 2019, published 2024).

Target: T1, human TREK-1 (Homo sapiens, UniProt O95069)
T1 construct: expressed in transfected cells
T1 sequence (O95069 1-426): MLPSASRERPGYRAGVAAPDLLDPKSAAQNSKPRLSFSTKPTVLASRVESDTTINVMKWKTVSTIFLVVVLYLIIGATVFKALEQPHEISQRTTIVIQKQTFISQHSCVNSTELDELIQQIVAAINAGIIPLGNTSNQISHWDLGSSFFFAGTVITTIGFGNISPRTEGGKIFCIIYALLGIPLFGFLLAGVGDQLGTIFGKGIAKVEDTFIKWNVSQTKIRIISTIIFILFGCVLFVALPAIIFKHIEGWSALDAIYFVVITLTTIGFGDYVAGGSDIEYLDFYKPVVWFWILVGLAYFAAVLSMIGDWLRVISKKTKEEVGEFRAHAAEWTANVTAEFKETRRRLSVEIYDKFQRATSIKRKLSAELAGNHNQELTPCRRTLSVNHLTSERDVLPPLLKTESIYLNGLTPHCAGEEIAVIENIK
Test: TREK-1 Thallium (Tl+) flux assay, Method 1
Format: cell-based
Settings: TREK-1 Thallium (Tl+) flux assay; values without footnote *12 are Method 1
Method in brief: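 CHO-K1 cells stably expressing human TREK-1, loaded with Thallos dye, received compound or 0.3% DMSO vehicle for 10 min before thallium stimulus buffer. ΔRatio is fluorescence at 25 s after thallium addition over mean pre-addition fluorescence; % inhibition calculated from it.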

Row | Compound | IC50 [nM]
1 | CC(=O)N1CC(Cn2ncc(Cl)c2C(=O)Nc2ncc(C#Cc3ccccc3)cc2C)C1 [Compound 135, 1-((1-acetylazetidin-3-yl)methyl)-4-chloro-N-(3-methyl-5-(phenylethynyl)pyridin-2-yl)-1H-pyrazole-5-carboxamide] | 220
2 | Cc1cc(C#Cc2ccccc2)cnc1NC(=O)c1c(Cl)cnn1C1CCN(C(=O)C(C)C)C1 (stereo not drawn) [Compound 136, 4-chloro-1-(1-isobutyrylpyrrolidin-3-yl)-N-(3-methyl-5-(phenylethynyl)pyridin-2-yl)-1H-pyrazole-5-carboxamide] | 220
3 | CCC(=O)N1CC(n2ncc(Cl)c2C(=O)Nc2ncc(C#Cc3ccccc3)cc2C)C1 [Compound 137, 4-chloro-N-(3-methyl-5-(phenylethynyl)pyridin-2-yl)-1-(1-propionylazetidin-3-yl)-1H-pyrazole-5-carboxamide] | 220
4 | Cc1cc(C#Cc2ccc(F)cc2)cnc1NC(=O)c1c(Cl)cnn1C1CC2(C1)CN(C(=O)C1COCCO1)C2 (stereo not drawn) [Compound 138, 1-(2-(1,4-dioxane-2-carbonyl)-2-azaspiro[3.3]heptan-6-yl)-4-chloro-N-(5-((4-fluorophenyl)ethynyl)-3-methylpyridin-2-yl)-1H-pyrazole-5-carboxamide] | 220
5 | O=C(Nc1ncc(C#Cc2cccs2)cc1F)c1c(Cl)cnn1C1CCN(C(=O)C2CC2)CC1 [Compound 139, 4-chloro-1-(1-(cyclopropanecarbonyl)piperidin-4-yl)-N-(3-fluoro-5-(thiophen-2-ylethynyl)pyridin-2-yl)-1H-pyrazole-5-carboxamide] | 220
6 | N#CC1(Cn2ncc(Cl)c2C(=O)Nc2ncc(C#Cc3ccccc3)cc2F)CC1 [Compound 141, 4-chloro-1-((1-cyanocyclopropyl)methyl)-N-(3-fluoro-5-(phenylethynyl)pyridin-2-yl)-1H-pyrazole-5-carboxamide] | 230
7 | CC(C)(C)OC(=O)N1CCC(Cn2ncc(Cl)c2C(=O)Nc2ncc(C#Cc3ccccc3)cc2F)CC1 [Compound 142, tert-butyl 4-((4-chloro-5-((3-fluoro-5-(phenylethynyl)pyridin-2-yl)carbamoyl)-1H-pyrazol-1-yl)methyl)piperidine-1-carboxylate] | 230
8 | Cc1cc(C#Cc2cccc(F)c2)cnc1NC(=O)c1c(Cl)cnn1C1CCN(C(=O)C2CC2)CC1 [Compound 143, 4-chloro-1-(1-(cyclopropanecarbonyl)piperidin-4-yl)-N-(5-((3-fluorophenyl)ethynyl)-3-methylpyridin-2-yl)-1H-pyrazole-5-carboxamide] | 230
9 | CC(C)C(=O)N1CCC(CCn2ncc(Cl)c2C(=O)Nc2ncc(C#Cc3ccccc3)cc2F)CC1 [Compound 144, 4-chloro-N-(3-fluoro-5-(phenylethynyl)pyridin-2-yl)-1-(2-(1-isobutyrylpiperidin-4-yl)ethyl)-1H-pyrazole-5-carboxamide] | 230
10 | CC(C)C(=O)N1CCOC(Cn2ncc(Cl)c2C(=O)Nc2ncc(C#Cc3ccccc3)cc2F)C1 (stereo not drawn) [Compound 145, 4-chloro-N-(3-fluoro-5-(phenylethynyl)pyridin-2-yl)-1-((4-isobutyrylmorpholin-2-yl)methyl)-1H-pyrazole-5-carboxamide] | 230
11 | CC(C)C(=O)N1CC[C@@H](Cn2ncc(Cl)c2C(=O)Nc2ncc(C#Cc3ccccc3)cc2F)[C@@H](F)C1 [Compound 146, 4-chloro-1-(((3R,4S)-3-fluoro-1-isobutyrylpiperidin-4-yl)methyl)-N-(3-fluoro-5-(phenylethynyl)pyridin-2-yl)-1H-pyrazole-5-carboxamide] | 230
12 | Cc1cc(C#Cc2ccccc2)cnc1NC(=O)c1c(Cl)cnn1C[C@H]1CCOC1 [Compound 147, (R)-4-chloro-N-(3-methyl-5-(phenylethynyl)pyridin-2-yl)-1-((tetrahydrofuran-3-yl)methyl)-1H-pyrazole-5-carboxamide] | 240
13 | O=C(Nc1ncc(C#Cc2ccccc2)cc1F)c1c(Cl)cnn1C[C@@H]1CCOC1 [Compound 148, (S)-4-chloro-N-(3-fluoro-5-(phenylethynyl)pyridin-2-yl)-1-((tetrahydrofuran-3-yl)methyl)-1H-pyrazole-5-carboxamide] | 240
14 | Cc1cc(C#Cc2ccccc2)cnc1NC(=O)c1c(Cl)cnn1C1CCN(C(=O)C2CC2)CC1 [Compound 149, 4-chloro-1-(1-(cyclopropanecarbonyl)piperidin-4-yl)-N-(3-methyl-5-(phenylethynyl)pyridin-2-yl)-1H-pyrazole-5-carboxamide] | 240
15 | CC(=O)N1CCC(Cn2ncc(Cl)c2C(=O)Nc2ncc(C#Cc3cccc(F)c3)cc2C)CC1 [Compound 150, 1-((1-acetylpiperidin-4-yl)methyl)-4-chloro-N-(5-((3-fluorophenyl)ethynyl)-3-methylpyridin-2-yl)-1H-pyrazole-5-carboxamide] | 240
16 | Cc1cc(C#Cc2ccc(F)cc2)cnc1NC(=O)c1c(Cl)cnn1C1CCN(C(=O)C(C)C)CC1 [Compound 151, 4-chloro-N-(5-((4-fluorophenyl)ethynyl)-3-methylpyridin-2-yl)-1-(1-isobutyrylpiperidin-4-yl)-1H-pyrazole-5-carboxamide] | 240
17 | Cc1cc(C#Cc2cccc(F)c2)cnc1NC(=O)c1c(Cl)cnn1C1CCN(C(=O)C(C)C)CC1 [Compound 152, 4-chloro-N-(5-((3-fluorophenyl)ethynyl)-3-methylpyridin-2-yl)-1-(1-isobutyrylpiperidin-4-yl)-1H-pyrazole-5-carboxamide] | 240
18 | CC(=O)N1CCC(CCn2ncc(Cl)c2C(=O)Nc2ncc(C#Cc3ccccc3)cc2C)CC1 [Compound 153, 1-(2-(1-acetylpiperidin-4-yl)ethyl)-4-chloro-N-(3-methyl-5-(phenylethynyl)pyridin-2-yl)-1H-pyrazole-5-carboxamide] | 240
19 | CC(=O)N1CC[C@H](n2ncc(Cl)c2C(=O)Nc2ncc(C#Cc3ccccc3)cc2F)[C@@H](F)C1 [Compound 154, 1-((3S,4S)-1-acetyl-3-fluoropiperidin-4-yl)-4-chloro-N-(3-fluoro-5-(phenylethynyl)pyridin-2-yl)-1H-pyrazole-5-carboxamide] | 240
20 | Cc1cc(C#Cc2ccccc2)cnc1NC(=O)c1c(Cl)cnn1CC1(F)CCN(C(=O)OC(C)(C)C)CC1 [Compound 155, tert-butyl 4-((4-chloro-5-((3-methyl-5-(phenylethynyl)pyridin-2-yl)carbamoyl)-1H-pyrazol-1-yl)methyl)-4-fluoropiperidine-1-carboxylate] | 240
21 | CC(=O)N[C@H]1C[C@H](n2ncc(Cl)c2C(=O)Nc2ncc(C#Cc3ccccc3)cc2C)C1 [Compound 156, 1-(trans-3-acetamidocyclobutyl)-4-chloro-N-(3-methyl-5-(phenylethynyl)pyridin-2-yl)-1H-pyrazole-5-carboxamide] | 240
22 | Cc1cc(C#Cc2ccccc2)cc(F)c1NC(=O)c1c(Cl)cnn1[C@H]1CCOC1 [Compound 157, (S)-4-chloro-N-(2-fluoro-6-methyl-4-(phenylethynyl)phenyl)-1-(tetrahydrofuran-3-yl)-1H-pyrazole-5-carboxamide] | 250
23 | CCNC(=O)N1CCC(n2ncc(Cl)c2C(=O)Nc2ncc(C#Cc3ccccc3)cc2F)CC1 [Compound 158, 4-(4-chloro-5-((3-fluoro-5-(phenylethynyl)pyridin-2-yl)carbamoyl)-1H-pyrazol-1-yl)-N-ethylpiperidine-1-carboxamide] | 250
24 | Cc1cc(C#Cc2ccccc2)cnc1NC(=O)c1c(Cl)cnn1C[C@@H]1CCOC1 [Compound 160, (S)-4-chloro-N-(3-methyl-5-(phenylethynyl)pyridin-2-yl)-1-((tetrahydrofuran-3-yl)methyl)-1H-pyrazole-5-carboxamide] | 260
25 | O=C(Nc1c(F)cc(C#Cc2ccccc2)cc1F)c1c(Cl)cnn1C[C@@H]1CCOC1 [Compound 161] | 260
26 | O=C(Nc1c(F)cc(C#Cc2ccccc2)cc1F)c1c(Cl)cnn1C[C@H]1CCOC1 [Compound 162, (R)-4-chloro-N-(2,6-difluoro-4-(phenylethynyl)phenyl)-1-((tetrahydrofuran-3-yl)methyl)-1H-pyrazole-5-carboxamide] | 260
27 | Cc1cc(C#Cc2ccccc2)cnc1NC(=O)c1c(Cl)cnn1C1CCN(S(C)(=O)=O)CC1 [Compound 163, 4-chloro-N-(3-methyl-5-(phenylethynyl)pyridin-2-yl)-1-(1-(methylsulfonyl)piperidin-4-yl)-1H-pyrazole-5-carboxamide] | 260
28 | CC(=O)N1CCC(n2ncc(Cl)c2C(=O)Nc2ncc(C#Cc3ccccc3F)cc2C)CC1 [Compound 164, 1-(1-acetylpiperidin-4-yl)-4-chloro-N-(5-((2-fluorophenyl)ethynyl)-3-methylpyridin-2-yl)-1H-pyrazole-5-carboxamide] | 260
29 | Cc1cc(C#Cc2ccc(F)cc2)cnc1NC(=O)c1c(Cl)cnn1[C@H]1CC[C@@H](NC(=O)C2CC2)CC1 [Compound 165, 4-chloro-1-(cis-4-(cyclopropanecarboxamido)cyclohexyl)-N-(5-((4-fluorophenyl)ethynyl)-3-methylpyridin-2-yl)-1H-pyrazole-5-carboxamide] | 260
30 | CC(=O)N1CCC(C)(Cn2ncc(Cl)c2C(=O)Nc2ncc(C#Cc3ccccc3)cc2C)CC1 [Compound 166, 1-((1-acetyl-4-methylpiperidin-4-yl)methyl)-4-chloro-N-(3-methyl-5-(phenylethynyl)pyridin-2-yl)-1H-pyrazole-5-carboxamide] | 260
